Test system: various cancers
Assay: Anti-proliferative effect of combinations, in vitro and in vivo
Excerpt: These cancers include, but are not limited to, lung cancer, small cell lung cancer, non-small cell lung cancer, colon cancer, breast cancer, pancreatic cancer, prostate cancer, renal cancer, cervical cancer, brain cancer, gastric/stomach cancer, uterine cancer, intestinal cancer, hepatic cancer, chronic myelogenous leukemia, melanoma, ovarian cancer, translocation-associated renal cell carcinoma (RCC), alveolar soft part sarcoma (ASPS), clear cell sarcoma (CCS), and hepatocellular carcinoma. The anti-proliferative effects of these combinational treatments are increased/enhanced in cell proliferative disorders and cancers in which the effected cells constitutively express or over-express c-Met. In addition, synergistic anti-proliferative effects are shown by (−)-trans-3-(5,6-dihydro-4H-pyrrolo[3,2,1-ij]quinolin-1-yl)-4-(1H-indol-3-yl) pyrrolidine-2,5-dione in combination with sorafenib in breast cancer, cervical cancer, lung cancer, small cell lung cancer, non-small cell lung cancer, melanoma, colon cancer, pancreatic cancer, renal cancer and gastric/stomach cancer; by (−)-trans-3-(5,6-dihydro-4H-pyrrolo[3,2,1-ij]quinolin-1-yl)-4-(1H-indol-3-yl)pyrrolidine-2,5-dione in combination with sunitinib in gastric/stomach cancer; by (−)-trans-3-(5,6-dihydro-4H-pyrrolo[3,2,1-ij]quinolin-1-yl)-4-(1H-indol-3-yl)pyrrolidine-2,5-dione in combination with erlotinib in lung cancer, small cell lung cancer, non-small cell lung cancer and colon cancer; and by (−)-trans-3-(5,6-dihydro-4H-pyrrolo[3,2,1-ij]quinolin-1-yl)-4-(1H-indol-3-yl)pyrrolidine-2,5-dione in combination with cisplatin in pancreatic cancer.

O=C1NC(=O)[C@@H](c2cn3c4c(cccc24)CCC3)[C@@H]1c1c[nH]c2ccccc12 [Agent A, (−)-trans-3-(5,6-dihydro-4H-pyrrolo[3,2,1-ij]quinolin-1-yl)-4-(1H-indol-3-yl)pyrrolidine-2,5-dione]
anti-proliferative effects in combination with sorafenib (breast, cervical, lung, small cell lung, non-small cell lung cancer, melanoma, colon, pancreatic, renal and gastric/stomach cancer): synergistic
anti-proliferative effects in combination with sunitinib (gastric/stomach cancer): synergistic
anti-proliferative effect in combination (in combination with sorafenib, sunitinib, erlotinib, gefitinib, cisplatin, carboplatin or capecitabine, various cancers, in vitro and in vivo): at least an additive
anti-proliferative effects in combination with erlotinib (lung, small cell lung, non-small cell lung and colon cancer): synergistic
anti-proliferative effects in combination with cisplatin (pancreatic cancer): synergistic
